Holding throughout (assay type): functional, cell-based
One experiment relates to SF-268. The experiment in a line: Cytotoxicity against human SF268 cells.
Another experiment relates to SF-295. The experiment in a line: Cytotoxicity against human SF295 cells.
The next experiment relates to A549. The experiment in a line: Cytotoxicity against human A549 cells.
For another experiment, the system named is MDA-MB-231. In words: Cytotoxicity against human MDA-MB-231 cells.
For another experiment, the system named is HCT-116. The experiment in a line: Cytotoxicity against human HCT116 cells.

pIC50: −log10 of the molar value.

What is called pIC50 is the negative decadic logarithm of the IC50, by convention in mol/L. Read a high pIC50 as a low IC50. For `CC(C)C[C@@H]1NC(=O)[C@@H](CC(C)C)NC(=O)[C@H](Cc2ccccc2)NC(=O)[C@H](C)OC(=O)[C@H](Cc2ccccc2)NC1=O`, the pIC50 with SF-268 was 4.51; with SF-295 it was 4.49; in the experiment with A549, < 4.30; in the experiment on MDA-MB-231 it was < 4.30; in the experiment with HCT-116 it was 5.11.
Consider `CC(C)C[C@@H]1NC(=O)[C@@H](CC(C)C)NC(=O)[C@H](C)NC(=O)[C@H](CC(C)C)OC(=O)[C@H](Cc2ccccc2)NC1=O`, for which the pIC50 in the experiment with SF-268 is 4.46; in the experiment with SF-295, 4.71; in the experiment with A549, 4.51; with MDA-MB-231, 5.12; with HCT-116 it was < 4.30.
Regarding `CC(C)C[C@@H]1NC(=O)[C@@H](CC(C)C)NC(=O)[C@H](Cc2ccccc2)NC(=O)[C@H](CC(C)C)OC(=O)[C@H](Cc2ccccc2)NC1=O` [ZYGOSPORAMIDE], the negative logarithm of the IC50 (pIC50) was 5.34 with SF-268; 5.38 in the experiment with SF-295; 5.60 in the experiment with A549; 5.24 in the experiment with MDA-MB-231; 4.66 in the experiment with HCT-116.
Consider `CC(C)C[C@@H]1NC(=O)[C@H](Cc2ccccc2)NC(=O)[C@H](CC(C)C)NC(=O)[C@@H](CC(C)C)NC(=O)[C@H](Cc2ccccc2)NC1=O`, for which the pIC50 was 4.69 in the experiment on SF-268; 4.84 in the experiment with SF-295; 4.68 in the experiment on A549; < 4.30 in the experiment with MDA-MB-231; 5.72 with HCT-116.
Taken in the same sequence, the figures for `CC(=O)O[C@H]1C(=O)[C@@]2(C)[C@H]([C@H](OC(=O)c3ccccc3)[C@]3(O)C[C@H](OC(=O)[C@H](O)[C@@H](NC(=O)c4ccccc4)c4ccccc4)C(C)=C1C3(C)C)[C@]1(OC(C)=O)CO[C@@H]1C[C@@H]2O` [PACLITAXEL] were 7.82, 6.54, 7.64, 7.39 and 7.87.
As for `CC(C)C[C@@H]1NC(=O)[C@@H](C)NC(=O)[C@H](Cc2ccccc2)NC(=O)[C@H](CC(C)C)OC(=O)[C@H](Cc2ccccc2)NC1=O`, the pIC50 was 4.98 with SF-268; 5.06 in the experiment with SF-295; < 4.30 in the experiment on A549; 5.30 in the experiment on MDA-MB-231; 5.68 in the experiment on HCT-116.
For the compound `CC(C)C[C@@H]1OC(=O)[C@H](Cc2ccccc2)NC(=O)[C@H](C)NC(=O)[C@@H](CC(C)C)NC(=O)[C@H](Cc2ccccc2)NC1=O`, the pIC50 in the experiment on SF-268, in the experiment with SF-295, in the experiment with A549, in the experiment on MDA-MB-231 and in the experiment with HCT-116 was < 4.30 each time.
As for `CC(C)C[C@@H]1NC(=O)[C@@H](CC(C)C)NC(=O)[C@H](Cc2ccccc2)NC(=O)[C@H](CC(C)C)OC(=O)[C@H](C)NC1=O`, the negative logarithm of the IC50 (pIC50) with SF-268 was 5.06; in the experiment with SF-295, 5.22; in the experiment with A549, < 4.30; with MDA-MB-231 it was 5.55; in the experiment with HCT-116, 5.57.

These data come from ChEMBL document CHEMBL1155824, “Synthesis and antitumor activity of cyclodepsipeptide zygosporamide and its analogues” (Bioorg Med Chem Lett, 2008).
